Patent US20260217700A1, “KINESIN KIF18A INHIBITOR AND USE THEREOF” (SHANGHAI APEIRON THERAPEUTICS COMPANY LIMITED, priority 2022, published 2026)
Like-named read-outs stand apart in the source and are kept apart here.

Legend:
[1] = target: T1, Human KIF18A (amino acid sequence 1-417) (Homo sapiens, UniProt Q8NI77); assay: Enzymatic activity test (ADP-Glo, microtubule-stimulated ATPase); format: biochemical; conditions: KIF18A 2.5 nM, ATP 25 μM, microtubules 60 μg/mL, 120 min at ambient temperature, ADP-Glo chemiluminescence; read-out: Enzyme Activity
T1 construct: purchased Viva Biotech (Shanghai) Ltd
T1 sequence (Q8NI77 1-417): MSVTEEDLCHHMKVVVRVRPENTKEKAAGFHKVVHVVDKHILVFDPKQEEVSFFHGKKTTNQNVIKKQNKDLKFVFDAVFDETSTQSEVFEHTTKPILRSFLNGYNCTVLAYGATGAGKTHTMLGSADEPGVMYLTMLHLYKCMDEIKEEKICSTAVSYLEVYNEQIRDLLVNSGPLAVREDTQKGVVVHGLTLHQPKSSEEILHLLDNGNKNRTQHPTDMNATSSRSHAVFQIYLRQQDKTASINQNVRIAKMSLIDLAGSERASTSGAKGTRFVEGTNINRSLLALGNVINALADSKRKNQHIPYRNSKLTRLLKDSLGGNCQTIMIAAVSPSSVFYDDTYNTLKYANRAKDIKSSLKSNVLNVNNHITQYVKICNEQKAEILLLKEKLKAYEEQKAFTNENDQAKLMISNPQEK
Protocol: Materials: Human KIF18A (amino acid sequence 1-417) was purchased from Viva Biotech (Shanghai) Ltd.; the ADP-Glo™ protein kinase kit was acquired from Promega, USA; tubulin was sourced from Cytoskeleton, USA; and the 384-well assay plate and Envision multifunctional microplate reader were obtained from PerkinElmer, USA.
Enzymatic Activity Test: Dissolve the compound powder in DMSO to prepare a stock solution of 10 mM. Then perform gradient dilution for the compounds in the microplate to achieve a final concentration of […]. Then, add 2.5 μL each of tubulin, compound, ATP, and KIF18A protein to the microplate in sequence for reaction at ambient temperature for 120 min. The final concentrations in the enzyme reaction are 60 μg/mL for microtubules, 25 μM for ATP, and 2.5 nM for KIF18A protein. After the enzyme reaction, add 10 μL of ADP-GLO reaction reagent to each well and incubate at ambient temperature for 30 min. After that, add […] to each well and incubate at ambient temperature for 30 min in the dark. Finally, perform chemiluminescence detection using the PerkinElmer Envision.

[2] = system: OVCAR3 cells; assay: Cell proliferation activity test (CyQUANT Direct); format: cell-based; conditions: read-out: OVCAR-3 Cell Viability_IC50_nM
Protocol: Materials and Cells: OVCAR3 cells were purchased from Nanjing Cobioer Biosciences Co., Ltd. RPMI-1640 medium, fetal bovine serum, and the CyQUANT Direct Cell Proliferation Assay kit were purchased from Thermo Fisher Scientific, USA; 96-well cell culture plates were sourced from Corning, USA.
Cell Culture: Culture OVCAR3 cells with RPMI-1640 medium containing 10% fetal bovine serum and incubate them in a 5% CO2 incubator at 37° C. Only cells in the logarithmic growth phase can be used for the test.
Inoculate OVCAR3 cells into a 96-well cell culture plate at 90 μL per well and incubate overnight in a 5% CO2 incubator at 37° C. Dissolve the compound powder in DMSO to prepare a stock solution of 10 mM. Then perform gradient dilution for the compounds in the microplate to achieve a final concentration of 0-10 μM. Add 10 μL of cell culture medium containing compounds to each well to make the final DMSO content 0.2%. Incubate the cell plates in a 5% CO2 incubator at 37° C. for 3 days. Add 100 μL of CyQUANT detection reagent to each well, react at 37° C. for 60 min, and perform fluorescence detection using the PerkinElmer Envision.

[3] = system: HT29 cells; assay: CyQuant cell proliferation activity test; format: cell-based; conditions: read-out: HT-29 Cell Viability_IC50_nM
Protocol: Materials and Cells: HT29 cells were purchased from Nanjing Cobioer Biosciences Co., Ltd.; RPMI-1640 medium, fetal bovine serum, Trypsin-EDTA (0.25%), 96-well plates, and CyQuant reagents were purchased from ThermoFisher (USA); DMSO was purchased from SIGMA (USA).
Cell Culture: Culture HT29 cells with RPMI-1640 containing 10% fetal bovine serum under the condition of 37° C. and 5% CO2. Only cells in the logarithmic growth phase can be used for the test.
Cell Proliferation Activity Test: Use the CyQuant reagent to detect the proliferation inhibitory activity of compounds on HT29 cells. The cell density was adjusted, and 100 μL per well was inoculated into a 96-well plate (HT29 at 2000 cells per well), then incubated overnight at 37° C. and 5% CO2. Add compounds of various target concentrations (initial concentration of 3000 nM, 3-fold dilution, 9 concentration gradients), and make the DMSO content 0.2%. The cell plate was incubated at 37° C. in 5% CO2 for 3 days. Incubate with CyQuant reagent for 1 h, read the plate by Envision, and calculate IC50 using XLFIT.

[4] = Homo sapiens, OVCAR-3, 72 h, OVCAR3 cells, 3 days incubation, CyQUANT fluorescence detection, DMSO 0.2%
[5] = Homo sapiens, HT-29, 72 h, HT29 at 2000 cells per well, 3 days incubation, CyQuant, initial concentration 3000 nM, DMSO 0.2%

| IC50 [1] | IC50 [2, 4] | IC50 [3, 5] | Structure (SMILES) | IC50 [2] | IC50 [3] |
| --- | --- | --- | --- | --- | --- |
| 0.029 µM | 0.025 µM | 0.05 µM | Cc1cc(NC(=O)c2c(N3CCC4(CC3)CC4)cc(NS(=O)(=O)CCO)c3ccoc23)nc(N2CCC(F)(F)CC2)n1 [Example 2, N-(2-(4,4-difluoropiperidin-1-yl)-6-methylpyrimidin-4-yl)-4-(2-hydroxyethylsulfonamido)-6-(6-azaspiro[2.5]octan-6-yl)-benzofuran-7-carboxamide] |  |  |
| 0.237 µM | 0.067 µM | 0.074 µM | O=C(Nc1cc2cccnc2c(N2CCC(F)(F)CC2)c1F)c1c(N2CCC3(CC2)CC3)cc(NS(=O)(=O)CCO)c2ccccc12 [Example 6, 2-{6-Azaspiro[2.5]octan-6-yl}-N-[8-(4,4-difluoropiperidin-1-yl)-7-fluoroquinolin-6-yl]-4-(2-hydroxyethanesulfonamido)naphthalene-1-carboxamide] |  |  |
| 0.635 µM | 0.098 µM | 0.123 µM | COc1cc(NC(=O)c2c(N3CCC4(CC3)CC4)cc(NS(=O)(=O)CCO)c3ccccc23)nc(N2CCC(F)(F)CC2)n1 [Example 7, 2-{6-Azaspiro[2.5]octan-6-yl}-N-[2-(4,4-difluoropiperidin-1-yl)-6-methoxypyrimidin-4-yl]-4-(2-hydroxyethanesulfonamido)naphthalene-1-carboxamide] |  |  |
| 0.28 µM | 0.488 µM | > 1 µM | Cc1cc(NC(=O)c2c(N3CCC4(CC3)CC4)cc(NS(=O)(=O)CCO)c3cccnc23)nc(N2CCC(F)(F)CC2)n1 [Example 8, N-(2-(4,4-difluoropiperidin-1-yl)-6-methylpyrimidin-4-yl)-5-((2-hydroxyethyl)sulfonamido)-7-(6-azaspiro[2.5]octan-6-yl)quinoline-8-carboxamide] |  |  |
| 0.176 µM | 0.026 µM | 0.037 µM | Cc1cc(NC(=O)c2c(N3CCC4(CC3)CC4)cc(NS(=O)(=O)CCO)c3c2CCC3)nc(N2CCC(F)(F)CC2)n1 [Example 9, N-(2-(4,4-difluoropiperidin-1-yl)-6-methylpyrimidin-4-yl)-7-((2-hydroxyethyl)sulfonamido)-5-(6-azaspiro[2.5]oct-6-yl)-2,3-dihydro-1H-indene-4-carboxamide] |  |  |
| 0.18 µM | 0.035 µM | 0.044 µM | CC(CO)S(=O)(=O)Nc1cc(N2CCC3(CC2)CC3)c(C(=O)Nc2cc3sc(N)nc3c(N3CCC(F)(F)CC3)c2F)c2ccccc12 (stereo not drawn) [Example 10, N-[2-amino-4-(4,4-difluoropiperidin-1-yl)-5-fluoro-1,3-benzothiazol-6-yl]-2-{6-azaspiro[2.5]octan-6-yl}-4-(1-hydroxypropane-2-sulfonamido)naphthalene-1-carboxamide] |  |  |

More lines, now with the values behind:

| Structure (SMILES) | IC50 [1] | IC50 [2, 4] | IC50 [3, 5] | IC50 [2] | IC50 [3] |
| --- | --- | --- | --- | --- | --- |
| Cc1cc(NC(=O)c2c(N3CCC4(CC3)CC4)cc(NS(=O)(=O)CCO)n3ccnc23)nc(N2CCC(F)(F)CC2)n1 [Example 1, N-(2-(4,4-difluoropiperidin-1-yl)-6-methylpyrimidin-4-yl)-5-(2-hydroxyethylsulfonamido)-7-(6-azaspiro[2.5]octan-6-yl)imidazo[1,2-a]pyridine-8-carboxamide] | 0.112 µM | 0.442 µM | 0.877 µM |  |  |
| Cc1cc(NC(=O)c2c(N3CCC4(CC3)CC4)cc(NS(=O)(=O)CCO)c3c2OCC3)nc(N2CCC(F)(F)CC2)n1 [Example 3, N-(2-(4,4-difluoropiperidin-1-yl)-6-methylpyrimidin-4-yl)-4-(2-hydroxyethylsulfonamido)-6-(6-azaspiro[2.5]octan-6-yl)-2,3-dihydrobenzofuran-7-carboxamide] | 0.027 µM | 0.028 µM | 0.045 µM |  |  |
| Cc1cc(NC(=O)c2c(N3CCC4(CC3)CC4)cc(NS(=O)(=O)CCO)c3ccccc23)nc(N2CCC(F)(F)CC2)n1 [Example 4, N-(2-(4,4-difluoropiperidin-1-yl)-6-methylpyrimidin-4-yl)-4-(2-_hydroxyethylsulfonamido)-2-(6-azaspiro[2.5]octan-6-yl)-1-naphthamide] | 0.173 µM |  |  | 0.037 µM | 0.052 µM |
| Cc1cc(NC(=O)c2c(N3CCC4(CC3)CC4)cc(NS(=O)(=O)CCO)c3ncccc23)nc(N2CCC(F)(F)CC2)n1 [Example 5, N-(2-(4,4-difluoropiperidin-1-yl)-6-methylpyrimidin-4-yl)-8-(2-hydroxyethanesulfonamido)-6-(6-azaspiro[2.5]octan-6-yl)quinoline-5-carboxamide] | 0.134 µM | 0.036 µM | 0.065 µM |  |  |
| Cc1cc(NC(=O)c2c(N3CCC4(CC3)CC4)cc(NS(=O)(=O)C(C)(C)CO)c3c2CCC3)nc(N2CCC(F)(F)CC2)n1 [Example 11, N-(2-(4,4-difluoropiperidin-1-yl)-6-methylpyrimidin-4-yl)-7-((2-hydroxy-1,1-dimethylethyl)sulfonamide)-5-(6-azaspiro[2.5]oct-6-yl)-2,3-dihydro-1H-indene-4-carboxamide] | 0.17 µM | 0.02 µM | 0.029 µM |  |  |
